Where “and” joins values, the source holds several entries; their conditions need not be identical. Equal values may be shown once. Entries after “also recorded” stand apart in the source; their conditions may differ.
Legend:
[1] = In vitro binding to hydroxyapatite; settings: 20 mg hydroxyapatite in saline, 10 min at room temperature
Method in brief: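 Binding is given as the percentage of ^68Ga activity retained by hydroxyapatite, measured by gamma counting of the solid versus the pooled supernatant and saline washes. The tracer (1 μCi) was exposed for 10 min at room temperature to hydroxyapatite pre-soaked 24 h in isotonic saline.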

[2] = In vivo biodistribution in mice; set-up: species or system normal CD-1 male mice; settings: for bone to blood ratio / bone to muscle ratio / Biodistribution: Blood / Biodistribution: Bone / Biodistribution: Brain / Biodistribution: Heart / Biodistribution: Kidney / Biodistribution: Liver / Biodistribution: Lung / Biodistribution: Muscle / Biodistribution: Pancreas / Biodistribution: Skin / Biodistribution: Spleen: iv
Method in brief: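 Uptake values are % injected dose per gram of wet tissue, from gamma counting of weighed organs with tibia plus femur taken as bone. Tracers (20-30 μCi per animal) were given i.v. to healthy male CD-1 mice (25-30 g), with sacrifice at 2, 30, 60 and 120 min post injection.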

[3] = Micro-PET imaging in normal mice; type: in vivo, normal CD-1 male mice; settings: 15 min scan at 60 min post-injection
Experimental: [^68Ga]1a, [^68Ga]BPAMD and [^18F]NaF were tested in normal CD-1 male mice. [^68Ga]1g was tested in PSMA expressing LNCaP tumor bearing nude mice. Mice received 300-500 uCi radiotracer through a tail vein injection. PET imaging was performed under isoflurane anaesthesia (2% isoflurane, 1.5 L/min oxygen). The microPET imaging was performed with a small animal PET (Mosaic by Phillips, USA). During PET measurements, the animals were placed in the prone position. At 60 min post injection of the radiotracer, data acquisition was performed for 15 min.

O=C([O-])CN(CCN(CC(=O)[O-])Cc1cc(CCC(=O)NC(P(=O)(O)O)P(=O)(O)O)ccc1[O-])Cc1cc(CCC(=O)O)ccc1[O-].[68Ga+3] [[^68Ga]1a]
Hydroxyapatite Binding (%) [1]: 92.3 ± 1.1%
bone to blood ratio ([2]; 2 min): 0.9
bone to muscle ratio ([2]; 2 min): 4.8
Biodistribution: Blood ([2]; 2 min post injection): 9.39 ± 0.93 % dose/g
Biodistribution: Bone ([2]; 2 min post injection): 8.60 ± 0.85 % dose/g
Biodistribution: Brain ([2]; 2 min post injection): 0.31 ± 0.10 % dose/g
Biodistribution: Heart ([2]; 2 min post injection): 3.28 ± 0.13 % dose/g
Biodistribution: Kidney ([2]; 2 min post injection): 31.2 ± 1.92 % dose/g
Biodistribution: Liver ([2]; 2 min post injection): 1.95 ± 0.15 % dose/g
Biodistribution: Lung ([2]; 2 min post injection): 4.28 ± 0.21 % dose/g
Biodistribution: Muscle ([2]; 2 min post injection): 1.80 ± 0.16 % dose/g
Biodistribution: Pancreas ([2]; 2 min post injection): 1.58 ± 0.10 % dose/g
Biodistribution: Skin ([2]; 2 min post injection): 2.18 ± 0.28 % dose/g
Biodistribution: Spleen ([2]; 2 min post injection): 1.89 ± 0.20 % dose/g
bone to blood ratio ([2]; 30 min): 36
bone to muscle ratio ([2]; 30 min): 96
Biodistribution: Blood ([2]; 30 min (0.5 hr) post injection): 0.45 ± 0.10 % dose/g
Biodistribution: Bone ([2]; 30 min (0.5 hr) post injection): 16.0 ± 1.22 % dose/g
Biodistribution: Brain ([2]; 30 min (0.5 hr) post injection): 0.02 ± 0.01 % dose/g
Biodistribution: Heart ([2]; 30 min (0.5 hr) post injection): 0.22 ± 0.02 % dose/g
Biodistribution: Kidney ([2]; 30 min (0.5 hr) post injection): 1.54 ± 0.29 % dose/g
Biodistribution: Liver ([2]; 30 min (0.5 hr) post injection): 0.32 ± 0.20 % dose/g
Biodistribution: Lung ([2]; 30 min (0.5 hr) post injection): 0.38 ± 0.03 % dose/g
Biodistribution: Muscle ([2]; 30 min (0.5 hr) post injection): 0.17 ± 0.03 % dose/g
Biodistribution: Pancreas ([2]; 30 min (0.5 hr) post injection): 0.30 ± 0.27 % dose/g
Biodistribution: Skin ([2]; 30 min (0.5 hr) post injection): 0.42 ± 0.12 % dose/g
Biodistribution: Spleen ([2]; 30 min (0.5 hr) post injection): 0.17 ± 0.01 % dose/g
bone to blood ratio ([2]; 60 min): 118
Biodistribution: Blood ([2]; 60 min (1 hr) post injection): 0.20 ± 0.06 % dose/g
Biodistribution: Bone ([2]; 60 min (1 hr) post injection): 23.5±1.4 % dose/g and 23.5 ± 1.42 % dose/g
Biodistribution: Brain ([2]; 60 min (1 hr) post injection): 0.02 ± 0.01 % dose/g
Biodistribution: Heart ([2]; 60 min (1 hr) post injection): 0.12 ± 0.02 % dose/g
Biodistribution: Kidney ([2]; 60 min (1 hr) post injection): 1.63 ± 0.71 % dose/g
Biodistribution: Liver ([2]; 60 min (1 hr) post injection): 0.17 ± 0.01 % dose/g
Biodistribution: Lung ([2]; 60 min (1 hr) post injection): 0.21 ± 0.03 % dose/g
Biodistribution: Muscle ([2]; 60 min (1 hr) post injection): 0.08 ± 0.02 % dose/g
Biodistribution: Pancreas ([2]; 60 min (1 hr) post injection): 0.09 ± 0.02 % dose/g
Biodistribution: Skin ([2]; 60 min (1 hr) post injection): 0.19 ± 0.05 % dose/g
Biodistribution: Spleen ([2]; 60 min (1 hr) post injection): 0.10 ± 0.02 % dose/g
bone to blood ratio ([2]; 120 min): 320
bone to muscle ratio ([2]; 120 min): 447
Biodistribution: Blood ([2]; 120 min post injection): 0.07 ± 0.03 % dose/g
Biodistribution: Bone ([2]; 120 min post injection): 23.9 ± 1.99 % dose/g
Biodistribution: Brain ([2]; 120 min post injection): 0.01 ± 0.00 % dose/g
Biodistribution: Heart ([2]; 120 min post injection): 0.07 ± 0.01 % dose/g
Biodistribution: Kidney ([2]; 120 min post injection): 0.92 ± 0.10 % dose/g
Biodistribution: Liver ([2]; 120 min post injection): 0.14 ± 0.02 % dose/g
Biodistribution: Lung ([2]; 120 min post injection): 0.12 ± 0.03 % dose/g
Biodistribution: Muscle ([2]; 120 min post injection): 0.05 ± 0.01 % dose/g
Biodistribution: Pancreas ([2]; 120 min post injection): 0.05 ± 0.01 % dose/g
Biodistribution: Skin ([2]; 120 min post injection): 0.13 ± 0.03 % dose/g
Biodistribution: Spleen ([2]; 120 min post injection): 0.09 ± 0.03 % dose/g
Biodistribution result in words (organ uptake, retention, excretion) ([2]; normal mice after iv injection): excellent bone uptake and fast kidney excretion; also recorded: excellent bone uptake and retention
Micro-PET localization (in words) [3]: localized in the spines of mice

— patent US10253052B2, “HBED-bisphosphonates, radiometal conjugates and their use as theranostic agents” (Five Eleven Pharma Inc., priority 2015, dated 2019)
